Test results as given in patent publication US20040005537A1, “Method of identifying toxic agents using differential gene expression” (priority 2000, published 2004).

Assays:
[1] = grouping used to generate the distinguishing gene profiles; cited from earlier work
rat heart tissue = assay: GENECALLING differential gene expression analysis after dosing of serotonin modulating agents; format: in vivo, Sprague Dawley rats
Description: Control animals received sterile water or canola oil. The animals were sacrificed 24 hours following the last dose. Liver tissue was dissected from the animals, and total RNA was recovered from the dissected tissue. cDNA was prepared and the resulting samples were processed through using GENECALLING™ differential expression analysis as described in U.S. Pat. No. 5,871,697 and in Shimkets et al., Nature Biotechnology 17:798-803 (1999). The contents of these patents and publications are incorporated herein by reference in their entirety.
Thousands of gene fragments were initially found to be differentially expressed in rat heart tissue in response to serotonin modulating agents in. Genes fragments whose expression levels were modulated greater than ±1.5-fold were selected for further analysis.
Column 6 of Table 1, entitled “Function”, lists the type of classification assigned for the protein, based on its function. The 210 single nucleic acid sequences identified herein, are referred to herein as CARDIOTOX 1-210.

CNCCC(Oc1ccc(C(F)(F)F)cc1)c1ccccc1 (stereo not drawn) [fluoxetine]
classification as cardiotoxic or noncardiotoxic serotonin modulating agent [1]: noncardiotoxic | Effects on Transcription Level: Novel gene fragment, 524 bp, 86% SI to mouse F-box protein FBX6b [AF176526] (rat heart tissue; CARDIOTOX 1): +1.3 fold | Effects on Transcription Level: Novel gene fragment, 306 bp, 91% SI to mouse low density lipoprotein receptor related protein 4 [AB013874] (rat heart tissue; CARDIOTOX 2): −1.3 fold | Effects on Transcription Level: Novel gene fragment, 540 bp, 97% SI to mouse skeletal muscle alpha-actin [X03766] (rat heart tissue; CARDIOTOX 3): −1.2 fold | Effects on Transcription Level: Novel gene fragment, 80 bp (rat heart tissue; CARDIOTOX 4): −1.3 fold | Effects on Transcription Level: Novel gene fragment, 957 bp, 99% SI to kidney injury associated moleculer HW036 [V80591] (rat heart tissue; CARDIOTOX 5): −1.4 fold | Effects on Transcription Level: Novel gene fragment, 282 bp, 85% SI to human KIAA1515 protein [AB040948] (rat heart tissue; CARDIOTOX 6): −1.2 fold | Effects on Transcription Level: Novel gene fragment, 405 bp, 88% SI to human 2-oxoglutarate dehydrogenase [D10523] (rat heart tissue; CARDIOTOX 7): +1.2 fold | Effects on Transcription Level: UCP2 (rat heart tissue; CARDIOTOX 8, GenBank AB010743): −1.3 fold | Effects on Transcription Level: Plasma membrane Ca2 + ATPase-isoform 1 (rat heart tissue; CARDIOTOX 9, GenBank J03753): −1.1 fold | Effects on Transcription Level: Novel gene fragment, 242 bp, 97% SI to mouse HSP86 heat-shock protein [X16857] (rat heart tissue; CARDIOTOX 10): +1.4 fold | Effects on Transcription Level: Novel gene fragment, 280 bp, 65% SI to human TRF1-interacting, ankyrin-related ADP-ribose polymerase [AF082556] (rat heart tissue; CARDIOTOX 11): +1.3 fold | Effects on Transcription Level: Novel gene fragment, 348 bp, 88% SI to mouse Sec61 protein complex gamma subunit [U11027] (rat heart tissue; CARDIOTOX 12): +1.2 fold | Effects on Transcription Level: Novel gene fragment 553 bp, 93% SI to mouse Sid329 [AB024984] (rat heart tissue; CARDIOTOX 13): +1.1 fold | Effects on Transcription Level: Kruppel-like transcription factor (rat heart tissue; CARDIOTOX 14, GenBank AB020759): +1.3 fold | Effects on Transcription Level: Ribosomal protein L3 (rat heart tissue; CARDIOTOX 15, GenBank X62166): +1.1 fold | Effects on Transcription Level: Glucose-regulated protein (GRP) 75 (rat heart tissue; CARDIOTOX 16, GenBank S78556): +1.3 fold | Effects on Transcription Level: Immunoglobulin heavy chain binding protein (BiP) (rat heart tissue; CARDIOTOX 17, GenBank M14050): +1.4 fold | Effects on Transcription Level: Membrane-spannining proteoglycan NG2 (rat heart tissue; CARDIOTOX 18, GenBank X56541): −1.2 fold | Effects on Transcription Level: Novel gene fragment, 1294 bp, 96% SI to mouse Sui 1 (elF) homolog [AF129888] (rat heart tissue; CARDIOTOX 19): +1.1 fold | Effects on Transcription Level: Novel gene fragment, 723 bp, 85% SI to human translation initiation factor elF3 p40 subunit [U54559] (rat heart tissue; CARDIOTOX 20): +1.0 fold | Effects on Transcription Level: Novel gene fragment, 1324 bp, 76% SI to human flavoprotein subunit of complex II [D30648] (rat heart tissue; CARDIOTOX 21): +1.3 fold | Effects on Transcription Level: Novel gene fragment, 852 bp, 81% SI to human vacuolar proton-ATPase subunit M9.2 [Y15286] (rat heart tissue; CARDIOTOX 22): +1.2 fold | Effects on Transcription Level: Novel gene fragment, 178 bp, 91% SI to mouse myosin light chain-2 isoform MLC-2a [S70785] (rat heart tissue; CARDIOTOX 23): +1.3 fold | Effects on Transcription Level: Novel gene fragment, 167 bp, 90% SI to mouse Rab20 [X80332] (rat heart tissue; CARDIOTOX 24): −1.2 fold | Effects on Transcription Level: Novel gene fragment, 1070 bp, 80% SI to human muscle-specific protein [AF249873] (rat heart tissue; CARDIOTOX 25): +1.3 fold | Effects on Transcription Level: Novel gene fragment, 1143 bp, 82% SI to human sarcoma amplified sequence (SAS) [U01160] (rat heart tissue; CARDIOTOX 26): +1.2 fold | Effects on Transcription Level: Novel gene fragment, 74 bp,75% SI to human secreted protein [X30160] (from patent database)/[X97578] (from patent database)/potential cytokine) (rat heart tissue; CARDIOTOX 27): +1.2 fold | Effects on Transcription Level: Novel gene fragment, 408 bp, 90% SI to human CGI-07 protein [AF132941] (rat heart tissue; CARDIOTOX 28): +1.2 fold | Effects on Transcription Level: Novel gene fragment, 618 bp, 95% SI to rat progression related cDNA, ZNPE-120 3′ end partial sequence [patent database X90805] (rat heart tissue; CARDIOTOX 29): +1.4 fold | Effects on Transcription Level: Novel gene fragment, 717 bp (rat heart tissue; CARDIOTOX 30): +1.2 fold | Effects on Transcription Level: Novel gene fragment, 546 bp (rat heart tissue; CARDIOTOX 31): +1.1 fold | Effects on Transcription Level: Novel gene fragment, 920 bp, 91% SI to human HSPC061 [AF161546] (rat heart tissue; CARDIOTOX 32): +1.4 fold | Effects on Transcription Level: Novel gene fragment, 203 bp, 92% SI to rabbit sarcoplasmic reticulum glycoprotein [J04480] (rat heart tissue; CARDIOTOX 33): −1.4 fold | Effects on Transcription Level: Novel gene fragment, 178 bp, 68% SI to mouse IgG receptor (beta-Fc-gamma-RII)[M63159] (rat heart tissue; CARDIOTOX 34): +1.3 fold | Effects on Transcription Level: Ribosomal protein L6 (rat heart tissue; CARDIOTOX 35, GenBank X87107): +1.2 fold | Effects on Transcription Level: CAP2 protein (adenylyl cyclase-associated protein 2) (rat heart tissue; CARDIOTOX 36, GenBank U31935): +1.4 fold | Effects on Transcription Level: Alpha-platelet-derived growth factor receptor (rat heart tissue; CARDIOTOX 37, GenBank M63837): +1.3 fold | Effects on Transcription Level: Rab GD1 alpha protein (rat heart tissue; CARDIOTOX 38, GenBank X74402): −1.3 fold | Effects on Transcription Level: PKC-zeta-interacting protein (rat heart tissue; CARDIOTOX 39, GenBank Y08355): +1.1 fold | Effects on Transcription Level: ERK or MAP kinase (rat heart tissue; CARDIOTOX 40, GenBank X65198): +1.3 fold | Effects on Transcription Level: Peroxisomal multifunctional enzyme type II (rat heart tissue; CARDIOTOX 41, GenBank U37486): +1.3 fold | Effects on Transcription Level: HBP23 (heme-binding protein 23 kDa) (rat heart tissue; CARDIOTOX 42, GenBank D30035): +1.3 fold | Effects on Transcription Level: Caveolae-associated protein (rat heart tissue; CARDIOTOX 43, GenBank U90725): +1.3 fold | Effects on Transcription Level: Prenylated rab acceptor 1 (PRA1) (rat heart tissue; CARDIOTOX 44, GenBank AF025506): +1.2 fold | Effects on Transcription Level: Novel gene fragment, 337 bp, 88% SI to rabbit cardiac ryanodine receptor (RyR-2)[U50465] (rat heart tissue; CARDIOTOX 45): +1.3 fold | Effects on Transcription Level: Novel gene fragment, 81 bp, 85% SI to human titin [X90568] (rat heart tissue; CARDIOTOX 46): −1.1 fold | Effects on Transcription Level: Novel gene fragment, 428 bp, 86% SI to human titin [X90568] (rat heart tissue; CARDIOTOX 47): +1.1 fold | Effects on Transcription Level: Novel gene fragment, 374 bp, 88% SI to human titin [X90568] (rat heart tissue; CARDIOTOX 48): +1.1 fold | Effects on Transcription Level: Novel gene fragment, 428 bp, 85% SI to human titin [90568] (rat heart tissue; CARDIOTOX 49): −1.3 fold | Effects on Transcription Level: Novel gene fragment, 1216 bp, 93% SI to mouse mircotubule-associated protein (MAP) 1B protein [AF115776] (rat heart tissue; CARDIOTOX 50): −1.2 fold | Effects on Transcription Level: Novel gene fragment, 1115 bp, 83% SI to human KIAA0549 protein [AB011121] (rat heart tissue; CARDIOTOX 51): −1.4 fold | Effects on Transcription Level: Novel gene fragment, 153 bp (rat heart tissue; CARDIOTOX 52): −1.4 fold | Effects on Transcription Level: Novel gene fragment, 89 bp, 93% SI to human putative glialblastoma cell differentiation-related protein (GBDR1) [AF068195] (rat heart tissue; CARDIOTOX 53): −1.0 fold | Effects on Transcription Level: Rho-associated kinase beta (rat heart tissue; CARDIOTOX 54, GenBank U61266): −1.2 fold | Effects on Transcription Level: Adenylate kinase 3 (rat heart tissue; CARDIOTOX 55, GenBank D13062): +1.3 fold | Effects on Transcription Level: Amyloid beta-peptide binding protein (rat heart tissue; CARDIOTOX 56, GenBank AF049878): +1.3 fold | Effects on Transcription Level: Mitochondrial adenine nuleotide translocator (rat heart tissue; CARDIOTOX 57, GenBank D12771): +1.4 fold | Effects on Transcription Level: Novel gene fragment, 710 bp, 94% SI to mouse chromatin structural protein homolog Supt5 hp (Supt5 h)[U88539] (rat heart tissue; CARDIOTOX 58): +2.8 fold | Effects on Transcription Level: Novel gene fragment, 186 bp, 66% SI to human N-acetylglucosaminyltransferase 1 (GlcNAc-TI)[M55621] (rat heart tissue; CARDIOTOX 60): −2.7 fold | Effects on Transcription Level: Novel gene fragment, 238 bp, 95% SI to mouse MAP kinase-activated protein kinase 2 [X76850] (rat heart tissue; CARDIOTOX 61): −1.7 fold | Effects on Transcription Level: Novel gene fragment, 173 bp, 70% SI to G protein-coupled receptor kinase GRK4 [X97568] (rat heart tissue; CARDIOTOX 62): −4.7 fold | Effects on Transcription Level: Novel gene fragment, 133 bp, 77% SI to human apoptosis related protein hSARP3 [patent database: V19114] (rat heart tissue; CARDIOTOX 63): −2.6 fold | Effects on Transcription Level: Novel gene fragment, 477 bp, 98% SI to peroxisomal phytanoyl-CoA hydroxylase (PHYH) [AF121345] (rat heart tissue; CARDIOTOX 64): +3.7 fold | Effects on Transcription Level: Novel gene fragment, 413 bp, 95% SI to mouse dihydrolipoamide dehydrogenase (Dld) [U73445] (rat heart tissue; CARDIOTOX 65): +2.0 fold | Effects on Transcription Level: Novel gene fragment, 726 bp, 76% SI to human succinate dehydrogenase flavoprotein subunit (SDH) [L21936] (rat heart tissue; CARDIOTOX 66): −4.4 fold | Effects on Transcription Level: Novel gene fragment, 440 bp, 92% SI to mouse cytochrome c oxidase Vllc [X52940] (rat heart tissue; CARDIOTOX 67): +2.1 fold | Effects on Transcription Level: Novel gene fragment, 276 bp, 80% SI to human titin [X90568] (rat heart tissue; CARDIOTOX 68): −11.0 fold | Effects on Transcription Level: Novel gene fragment, 149 bp, 70% SI to human titin [X90568] (rat heart tissue; CARDIOTOX 69): −3.7 fold
